Assay results: paper PMC6481325, “Novel N,N-dialkyl cyanocinnamic acids as monocarboxylate transporter 1 and 4 inhibitors” (Oncotarget, 2019)
Like-named read-outs stand apart in the source and are kept apart here.

How the values were obtained:
MCT4 = molecular target: T1, MCT4 (Homo sapiens, UniProt O15427); test: L-[14C]-lactate uptake study in MCT4 expressing MDA-MB-231 cells; format: cell-based; conditions: read-out: MCT4 IC50
T1 construct: These cells predominantly express MCT4 as confirmed by Western blot and quantitative PCR analysis; host or cells: MDA-MB-231
T1 sequence (O15427 2-465 limits assumed): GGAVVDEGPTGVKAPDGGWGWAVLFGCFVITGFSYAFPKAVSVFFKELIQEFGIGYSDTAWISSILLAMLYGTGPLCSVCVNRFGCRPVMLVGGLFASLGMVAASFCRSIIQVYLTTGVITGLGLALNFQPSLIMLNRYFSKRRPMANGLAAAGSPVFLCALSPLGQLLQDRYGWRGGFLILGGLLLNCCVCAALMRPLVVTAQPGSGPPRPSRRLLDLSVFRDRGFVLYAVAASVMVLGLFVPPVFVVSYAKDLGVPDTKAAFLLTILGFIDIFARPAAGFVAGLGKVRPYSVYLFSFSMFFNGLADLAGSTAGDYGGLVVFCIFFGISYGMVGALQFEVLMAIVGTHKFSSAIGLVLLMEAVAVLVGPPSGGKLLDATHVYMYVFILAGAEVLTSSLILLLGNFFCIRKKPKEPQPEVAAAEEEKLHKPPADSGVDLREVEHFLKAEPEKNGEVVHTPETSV
T1 sequence (P35613 140-385 partner limits assumed): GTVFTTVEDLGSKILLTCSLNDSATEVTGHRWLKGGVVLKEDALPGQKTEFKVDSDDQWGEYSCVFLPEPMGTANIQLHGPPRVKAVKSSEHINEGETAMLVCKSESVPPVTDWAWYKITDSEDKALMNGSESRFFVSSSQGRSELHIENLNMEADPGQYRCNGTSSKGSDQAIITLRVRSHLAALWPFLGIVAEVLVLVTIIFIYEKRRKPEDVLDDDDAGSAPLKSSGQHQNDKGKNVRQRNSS
Experimental: In this study, an L-[^14C]-lactate based transport assay was developed by us to quantify MCT4 transport and its inhibition by test compounds. […] For the MCT4 transport assay, the pH of HEPES buffer with L-[^14C]-lactate was adjusted to 7.0 such that lactate influx into the cells was aided by the pH gradient. […] Test compounds were diluted to working concentration in HEPES buffer (140 mM NaCl, 5 mM KCl, 2 mM CaCl2, 2 mM MgCl2, 10 mM HEPES, pH 7.0) containing 3 μM L-[^14C]-lactate (Perkin Elmer) and 2 μM L-lactate. […] HEPES buffer was replaced with 250 μL test solution. After 1 hour, media was replaced with 500 μL ice-cold stop buffer (0.1 mM CHC solution in HBS, pH 7.4) and the plates were placed on ice. Cells were washed twice with ice-cold stop buffer and solubilized using 250 μL of 0.1 M NaOH in 5% Triton-X (Millipore Sigma). A 150 μL aliquot from each well was added to 4 mL EcoLite(+)™ scintillation fluid (MP Biomedicals) and radioactivity was determined by scintillation spectrometry. Inhibition by each test solution was calculated as a percentage of the maximum control uptake. CHC and dimethylsulfoxide (DMSO) were used as controls. […]

MDA-MB-231 cells = test: SRB cell proliferation inhibition assay, MDA-MB-231; format: cell-based; conditions: 72 hours, average ± sem
Experimental: MDA-MB-231 cells (ATCC, 2015) were grown in DMEM supplemented with 10% FBS and penicillin-streptomycin (50 U/ml, 50 μg/ml, Invitrogen). WiDr cells (ATCC, 2017) were cultured in MEM medium supplemented with 10% FBS (Atlanta Biologicals) and penicillin-streptomycin (50 U/ml, 50 μg/ml). For in vitro experiments, after seeding, cells were incubated at 37°C in 5% CO2 for 18–24 hours before the addition of test compounds.
Cells (5 × 10^4 cells/mL) were cultured in 48-well plates. Test compounds were dissolved in DMSO (final concentration of DMSO is <0.1%) and were added to culture wells at various concentrations in replicate and incubated for 72 hours. Growth medium was removed and the wells were washed with PBS and dried. SRB (0.5% in 1% acetic acid) was added to the wells and incubated for 30–45 minutes. The wells were washed 3 times with 1% acetic acid and dried. The cellular protein was dissolved in trizma base (10 mM, pH 10.2) and absorbance was recorded at 540 nm. Percent survival was calculated using the formula %Survival=Abstest compound/Abscontrol×100 .

[1] = test system: MCT1 expressing WiDr cells; test: Seahorse XFe96 mitochondrial stress test (OCR), WiDr; format: cell-based; conditions: 30 μM
Experimental: Extracellular acidification rates (ECAR) and oxygen consumption rates (OCR) were recorded in real-time for glycolysis stress test (GST) and mitochondrial stress test (MST), respectively, using Agilent Seahorse XFe96® analyzer.

WiDr tumor xenograft = test system: WiDr tumor xenograft; set-up: method as in ref 32, 33 = [32]; PMID 26005533; doi:10.1021/acsmedchemlett.5b00049; 32 Gurrapu S Jonnalagadda SK Alam MA Nelson GL Sneve MG Drewes LR Mereddy VR Monocarboxylate transporter 1 inhibitors as potential anticancer agents ACS Med Chem Lett 2015 6 558 61 10.1021/acsmedcheml || [33]; 33 Mereddy VR Drewes LR Alam MA Jonnalagadda SK Gurrapu S Therapeutic Compounds US 9296728B2 United States Patent and Trademark Office 2016 https://app.dimensions.ai/details/patent/US-9296728-B2; conditions: mice, three weeks; cited from earlier work
[2] = set-up: method as in ref 32 = [32]; PMID 26005533; doi:10.1021/acsmedchemlett.5b00049; 32 Gurrapu S Jonnalagadda SK Alam MA Nelson GL Sneve MG Drewes LR Mereddy VR Monocarboxylate transporter 1 inhibitors as potential anticancer agents ACS Med Chem Lett 2015 6 558 61 10.1021/acsmedcheml; conditions: in vivo; cited from earlier work

Q: Which results are given for `COc1cc(N(c2ccccc2)c2ccccc2)ccc1/C=C(\C#N)C(=O)O` [Phenyl (9)]?
A: IC50 (MCT4; Figure 1A and text, lactate uptake): 23 nM; IC50 (MCT4; Supplementary Table 1, average ± SEM): 18 ± 8 nM; SRB IC50 (MDA-MB-231 cells): did not show any activity; IC50 (MDA-MB-231 cells; Homo sapiens): > 25000 nM; ATP production (MST, OCR) [1]: significantly decreased; maximal respiration (MST, OCR) [1]: significantly decreased; proton leak (MST, OCR) [1]: significantly increased proton leak compared to compound 3; spare respiratory capacity (MST, OCR) [1]: significantly decreased; tumor growth reduction (WiDr tumor xenograft): 33%; elimination from plasma [2]: most of the compound was eliminated in less than one hour; time of peak plasma concentration [2]: 15 min
